Assay [1] deals with angiotensin II AT1 receptor. Nature of the assay: Assay A: Angiotensin II binding activity (125I-AII displacement, rat uterine membrane preparation).
The subject of assay [2] is rabbit aortic rings. Kind of assay: Assay B: In vitro vascular smooth muscle response for AII (antagonist activity, pA2). In kind it is cell-based. The conditions noted are these: in vitro vascular smooth muscle response, two values per cell separated by / are separate determinations; for Kb: Oryctolagus cuniculus, read-out: Assay B pA2 (converted). The protocol:
Assay B: In Vitro Vascular Smooth Muscle-response for AII
The compounds of the invention were tested for antagonist activity in rabbit aortic rings. Male New Zealand white rabbits (2-2.5 kg) were sacrificed using an overdose of pentobarbital and exsanguinated via the carotid arteries. The thoracic aorta was removed, cleaned of adherent fat and connective tissue and then cut into 3-mm ring segments. The endothelium was removed from the rings by gently sliding a rolled-up piece of filter paper into the vessel lumen. The rings were then mounted in a water-jacketed tissue bath, maintained at 37° C., between moveable and fixed ends of a stainless steel wire with the moveable end attached to an FT03 Grass transducer coupled to a Model 7D Grass Polygraph for recording isometric force responses. The bath was filled with 20 ml of oxygenated (95% oxygen/5% carbon dioxide) Krebs solution of the following composition (mM): 130 NaCl, […], 15 KCl, 1.2 NaH2PO4, 1.2 MgSO4, 2.5 CaCl2, and 11.4 glucose. The preparations were equilibrated for one hour before approximately one gram of passive tension was placed on the rings. Angiotensin II concentration-response curves were then recorded (3×10^−10 to 1×10^−5 M). Each concentration of AII was allowed to elicit its maximal contraction, and then AII was washed out repeatedly for 30 minutes before rechallenging with a higher concentration of AII. Aorta rings were exposed to the test antagonist at […] for 5 minutes before challenging with AII. Adjacent segments of the same aorta ring were used for all concentration-response curves in the presence or absence of the test antagonist. The effectiveness of the test compound was expressed in terms of pA2 values and were calculated according to H. O. Schild [Br. J. Pharmacol, Chemother., 2,189-206 (1947)]. The pA2 value is the concentration of the antagonist which increases the EC50 value for AII by a factor of two. Each test antagonist was evaluated in aorta rings from two rabbits.

pIC50: −log10 of the molar value. “And” between values parts separate entries of the source, which are not always exact repeats. Equal entries are not always repeated.

The values below come from patent US6653306B1, “Epoxy-steroidal aldosterone antagonist and angiotensin II antagonist combination therapy” (G.D. Searle & Co., priority 1995, dated 2003).

Turning to `CCCCc1nc(CCC(C)C)nn1Cc1ccc(-c2ccccc2-c2nnn[nH]2)cc1` [Compound 17], the pIC50 – broadly, the negative decadic logarithm of the IC50, by convention in mol/L – in assay [1] was 8.40. The Kb in assay [2] was 0.00229 µM.

In assay [1], `CCCCCCn1nc(CCCC)n(Cc2ccc(-c3ccccc3-c3nn[nH]n3)cc2)c1=O` [Compound 85] had a pIC50 of 8.06. For the same compound, the Kb in assay [2] is 0.00126 µM.

In assay [1], `CCCCn1nc(C(=O)NC)nc1Cc1ccc(-c2ccccc2-c2nnn[nH]2)nc1` [Compound 172] had a pIC50 of 7.15. For the same compound, the Kb in assay [2] is 0.0708 µM.

Regarding `CCCCc1nc(Cc2ccc(-c3ccccc3C(=O)O)cc2)n(CCCC)n1` [Compound 126], in assay [1], the pIC50 is 6.62. In assay [2], the Kb was 0.0631 µM.

For the compound `CCCCc1ncnn1Cc1ccc(-c2ccccc2-c2nnn[nH]2)cc1` [Compound 53], the negative logarithm of the IC50 (pIC50) in assay [1] was 7.19. Further, the Kb in assay [2] was 0.0275 µM.

In turn, `CCCCc1ncn(Cc2ccc(-c3ccccc3-c3nnn[nH]3)cc2)n1` [Compound 54] gave a pIC50 in assay [1] of 5.51. The Kb in assay [2] is 0.955 µM.

`CCCCc1ncnn1Cc1ccc(-c2ccccc2C(=O)O)cc1` [Compound 18] gave a pIC50 in assay [1] of 6.01. For the same compound, the Kb in assay [2] is 0.724 µM.

In the case of `CCCCc1nn(CC2CC2)c(=O)n1Cc1ccc(-c2ccccc2-c2nn[nH]n2)cc1` [Compound 104], the pIC50 in assay [1] was 7.82. Besides, the Kb in assay [2] is 0.01 µM.

In the case of `CCCCc1nn(CC(=O)c2cc(OC)ccc2OC)c(=O)n1Cc1ccc(-c2ccccc2-c2nn[nH]n2)cc1` [Compound 96], the pIC50 in assay [1] was 7.68. The Kb in assay [2] was 0.01 µM.

`CCCCc1nc(CC(OCC)OCC)n(Cc2ccc(-c3ccccc3-c3nnn[nH]3)cc2)n1` [Compound 37]: the negative-log IC50 (pIC50) in assay [1] is 6.47. The Kb in assay [2] is 0.126 µM.

In assay [1], `CCCCc1nn(CC(OCc2ccccc2)c2ccccc2)c(=O)n1Cc1ccc(-c2ccccc2-c2nn[nH]n2)cc1` (stereo not drawn) [Compound 97] had a negative-log IC50 (pIC50) of 6.55. Besides, the Kb in assay [2] is 0.02 µM.

As for `CCCCc1c(C)n(CCCC)c(=O)n1Cc1ccc(-c2ccccc2-c2nnn[nH]2)cc1` [Compound 137], in assay [1], the negative logarithm of the IC50 (pIC50) is 6.66. In addition, the Kb in assay [2] is 0.00501 µM.

In assay [1], `CCCCc1nc(C(=O)NC)nn1Cc1ccc(-c2ccccc2-c2nnn[nH]2)nc1` [Compound 257] had a pIC50 of 6.80. Also, in assay [2], the Kb is 0.234 µM.

As to `CCCCn1nc(C(F)(F)CCC)nc1Cc1ccc(-c2ccccc2-c2nnn[nH]2)cc1` [Compound 130], the pIC50 in assay [1] was 7.40. Also, the Kb in assay [2] is 0.00794 µM.

For `CCCCc1nc(C(OC)OC)nn1Cc1ccc(-c2ccccc2-c2nnn[nH]2)cc1` [Compound 24], the negative-log IC50 (pIC50) in assay [1] is 8.00. Moreover, the Kb in assay [2] was 0.0275 µM.

As to `CCCCc1nc(CCC2CCCCC2)n(Cc2ccc(-c3ccccc3-c3nnn[nH]3)cc2)n1` [Compound 42], in assay [1], the pIC50 is 6.43. Further, the Kb in assay [2] is 0.275 µM.

Turning to `CCCCc1nc(C)n(Cc2ccc(-c3ccccc3C(=O)O)cc2)n1` [Compound 77], the negative logarithm of the IC50 (pIC50) in assay [1] was 4.82. Further, the Kb in assay [2] was 1.7 µM.

Turning to `CCCCc1nc(CCCC2CCCCC2)nn1Cc1ccc(-c2ccccc2-c2nnn[nH]2)cc1` [Compound 58], the pIC50 in assay [1] is 6.85. In addition, in assay [2], the Kb is 0.355 µM.

`CCCCc1nc(Cc2ccc(-c3ccccc3-c3nnn[nH]3)nc2)n(CC(C)(C)C)n1` [Compound 184] had a pIC50 in assay [1] of 5.96. The Kb in assay [2] is 0.166 µM.

As for `CCCCc1nc(CCC)nn1Cc1ccc(-c2ccccc2-c2nnn[nH]2)cc1` [Compound 14], the negative-log IC50 (pIC50) in assay [1] is 8.14. Besides, the Kb in assay [2] was 0.00145 µM.

`CCCCc1nc(CC)n(Cc2ccc(-c3ccccc3C(=O)O)cc2)n1` [Compound 76]: the negative-log IC50 (pIC50) in assay [1] was 5.27. Also, in assay [2], the Kb was 3.02 µM.

In assay [1], `CCCCc1nc(C(=O)O)nn1Cc1ccc(-c2ccccc2-c2nnn[nH]2)cc1` [Compound 52] showed a pIC50 of 7.00. Moreover, the Kb in assay [2] was 0.00724 µM.

In the case of `CCCCCn1nc(CCCC)n(Cc2ccc(-c3ccccc3-c3nn[nH]n3)cc2)c1=O` [Compound 90], in assay [1], the pIC50 is 8.25. For the same compound, in assay [2], the Kb is 0.001 µM.

In the case of `CCCCc1nc(CCCN)nn1Cc1ccc(-c2ccccc2-c2nnn[nH]2)cc1` [Compound 72], in assay [1], the negative logarithm of the IC50 (pIC50) is 7.08. Besides, the Kb in assay [2] is 0.776 µM.

`CCCCc1nn(CC(=O)OCC)c(=O)n1Cc1ccc(-c2ccccc2-c2nn[nH]n2)cc1` [Compound 86]: in assay [1], the negative-log IC50 (pIC50) is 8.05. In addition, in assay [2], the Kb is 0.0158 µM.

In assay [1], `CCCCc1nc(CCC(=O)O)n(Cc2ccc(-c3ccccc3-c3nnn[nH]3)cc2)n1` [Compound 64] showed a pIC50 of 7.27. For the same compound, the Kb in assay [2] was 0.1 µM.

`CCCCc1nc(Cc2ccc(-c3ccccc3C(=O)O)cc2)nn1CCCC` [Compound 127]: in assay [1], the pIC50 was 4.92. In addition, the Kb in assay [2] is 11 µM.

Turning to `CCCCc1nc(-c2ccccc2)n(Cc2ccc(-c3ccccc3-c3nnn[nH]3)cc2)n1` [Compound 22], in assay [1], the negative-log IC50 (pIC50) was 6.34. Besides, the Kb in assay [2] is 0.251 µM.

As for `CCCCc1nc(CN)n(Cc2ccc(-c3ccccc3-c3nnn[nH]3)cc2)n1` [Compound 36], in assay [1], the pIC50 is 5.85. In addition, in assay [2], the Kb is 1.2 µM.

`CCCCc1ncn(Cc2ccc(-c3ccccc3C(=O)O)cc2)n1` [Compound 19] had a negative-log IC50 (pIC50) in assay [1] of 4.92. Also, in assay [2], the Kb was 6.61 µM.

Take `CCCCc1nc(CC2CCCCC2)n(Cc2ccc(-c3ccccc3-c3nnn[nH]3)cc2)n1` [Compound 73]: the pIC50 in assay [1] was 6.10. For the same compound, the Kb in assay [2] is 0.0224 µM.

Take `CCCCc1nc(CCc2ccccc2)n(Cc2ccc(-c3ccccc3-c3nnn[nH]3)cc2)n1` [Compound 25]: in assay [1], the negative logarithm of the IC50 (pIC50) is 6.32. For the same compound, the Kb in assay [2] was 0.158 µM.

`CCCCn1nc(C(C)(F)F)nc1Cc1ccc(-c2ccccc2-c2nnn[nH]2)nc1` [Compound 166]: in assay [1], the negative logarithm of the IC50 (pIC50) is 6.80. Also, the Kb in assay [2] was 0.0269 µM.

Regarding `CCCCc1nn(CCCC)c(=O)n1Cc1ccc(-c2ccccc2-c2nnn[nH]2)cc1` [Compound 79], in assay [1], the pIC50 was 8.31. Besides, the Kb in assay [2] was 0.000631 µM.

As for `CCCCc1nc(CCC)n(Cc2ccc(-c3ccccc3-c3nnn[nH]3)cc2)n1` [Compound 15], the pIC50 in assay [1] was 7.80. Moreover, the Kb in assay [2] is 0.0049 µM.

With `CCCCc1nc(CC)nn1Cc1ccc(-c2ccccc2-c2nnn[nH]2)cc1` [Compound 39], the negative-log IC50 (pIC50) in assay [1] was 8.00. The Kb in assay [2] was 0.0132 µM.

As to `CCCc1nc(CCC)n(Cc2ccc(-c3ccccc3-c3nnn[nH]3)cc2)n1` [Compound 12], the negative-log IC50 (pIC50) in assay [1] was 8.22. In addition, the Kb in assay [2] is 0.00219 µM.

`CCCCc1nc(Cc2ccc(-c3ccccc3-c3nnn[nH]3)cc2)n(CCCC)n1` [Compound 128] showed a pIC50 in assay [1] of 7.80. Also, in assay [2], the Kb was 0.00234 µM.

`CCCc1cn(CCC)c(=O)n1Cc1ccc(-c2ccccc2-c2nnn[nH]2)cc1` [Compound 138]: in assay [1], the pIC50 is 6.89. In addition, the Kb in assay [2] was 0.00631 µM.

The compound `CCCCc1nc(C(F)F)nn1Cc1ccc(-c2ccccc2-c2nnn[nH]2)cc1` [Compound 47] showed a pIC50 in assay [1] of 7.68. The Kb in assay [2] was 0.0141 µM.

Turning to `CCCn1nc(C(OC)OC)nc1Cc1ccc(-c2ccccc2-c2nnn[nH]2)nc1` [Compound 174], in assay [1], the pIC50 was 6.74. Also, the Kb in assay [2] is 0.0513 µM.

Take `CCCc1nc(CCC)n(Cc2ccc(-c3ccccc3-c3nnn[nH]3)nc2)n1` [Compound 246]: the pIC50 in assay [1] was 7.14. Also, the Kb in assay [2] is 0.0347 µM.

For the compound `CCCCc1nc2c(OCC)nnc(OCC)c2n1Cc1ccc(-c2ccccc2-c2nnn[nH]2)cc1` [Compound 112], the negative logarithm of the IC50 (pIC50) in assay [1] is 5.70. In addition, the Kb in assay [2] is 6.31 µM.

The compound `CCCCc1nc(C(F)(F)Cc2ccccc2)nn1Cc1ccc(-c2ccccc2-c2nnn[nH]2)cc1` [Compound 51] had a negative logarithm of the IC50 (pIC50) in assay [1] of 8.06. The Kb in assay [2] is 0.00407 µM.

In assay [1], `CCCCc1nc(CCC(C)C)n(Cc2ccc(-c3ccccc3-c3nnn[nH]3)cc2)n1` [Compound 16] had a pIC50 of 8.19. Further, in assay [2], the Kb was 0.00112 µM.

On to `CCCCn1nc(C=O)nc1Cc1ccc(-c2ccccc2-c2nnn[nH]2)nc1` [Compound 179], for which the pIC50 in assay [1] is 6.51. Moreover, the Kb in assay [2] is 0.214 µM.

Consider `CCCCc1cn(-c2c(C)cc(C(C)(C)C)cc2C)c(=O)n1Cc1ccc(-c2ccccc2-c2nnn[nH]2)cc1` [Compound 279], for which, in assay [1], the pIC50 is 6.57. For the same compound, the “Assay B pA2” value in assay [2] was 8.06 and 8.25.

In assay [1], `CCCn1nc(C(F)(F)CC)nc1Cc1ccc(-c2ccccc2-c2nnn[nH]2)nc1` [Compound 167] had a pIC50 of 6.43. Also, the Kb in assay [2] was 0.0832 µM.

On to `CCCCn1nc(C(C#N)CCC)n(Cc2ccc(-c3ccccc3-c3nn[nH]n3)cc2)c1=O` (stereo not drawn) [Compound 106], for which the pIC50 in assay [1] was 7.32. Further, the Kb in assay [2] is 0.02 µM.

As to `CCCCc1nc(C(=O)NC)n(Cc2ccc(-c3ccccc3-c3nnn[nH]3)nc2)n1` [Compound 258], the negative-log IC50 (pIC50) in assay [1] was 6.46. For the same compound, in assay [2], the Kb is 0.145 µM.

In turn, `CCCCc1nc(C(=O)Cc2ccccc2)nn1Cc1ccc(-c2ccccc2-c2nnn[nH]2)cc1` [Compound 50] showed a negative logarithm of the IC50 (pIC50) in assay [1] of 7.27. In addition, the Kb in assay [2] was 0.0195 µM.
